ChEMBL document CHEMBL3045446, “In vitro antimicrobial and antimycobacterial activity of some chalcones and their derivatives” (2013)
In brackets after ≈: the same amount, converted by molar mass.

Experiments:
Type in all cases: functional
Aspergillus clavatus [1] = assay: Antimicrobial activity against Aspergillus clavatus MTCC 1323 assessed as diameter of growth inhibition zone after 48 hr
Candida albicans [2] = assay: Antimicrobial activity against Candida albicans MTCC 183 assessed as diameter of growth inhibition zone after 48 hr
Candida albicans [3] = assay: Antimicrobial activity against Candida albicans MTCC 183 assessed as growth inhibition after 48 hr by agar streak dilution method; conditions: MTCC 183, 48 h
Aspergillus niger [4] = assay: Antimicrobial activity against Aspergillus niger MTCC 282 assessed as growth inhibition after 48 hr by agar streak dilution method; conditions: MTCC 282, 48 h
Aspergillus fumigatus [5] = assay: Antimicrobial activity against Aspergillus fumigatus MTCC 343 assessed as diameter of growth inhibition zone after 48 hr
Aspergillus niger [6] = assay: Antimicrobial activity against Aspergillus niger MTCC 282 assessed as diameter of growth inhibition zone after 48 hr
Aspergillus fumigatus [7] = assay: Antimicrobial activity against Aspergillus fumigatus MTCC 343 assessed as growth inhibition after 48 hr by agar streak dilution method; conditions: MTCC 343, 48 h
Aspergillus clavatus [8] = assay: Antimicrobial activity against Aspergillus clavatus MTCC 1323 assessed as growth inhibition after 48 hr by agar streak dilution method; conditions: MTCC 1323, 48 h
Klebsiella pneumoniae [9] = assay: Antimicrobial activity against Klebsiella pneumoniae MTCC 109 assessed as diameter of growth inhibition zone after 24 hr
Shigella flexneri [10] = assay: Antimicrobial activity against Shigella flexneri MTCC1457 assessed as growth inhibition after 24 hr by agar streak dilution method; conditions: MTCC1457, 24 h
Bacillus cereus [11] = assay: Antimicrobial activity against Bacillus cereus MTCC 430 assessed as diameter of growth inhibition zone after 24 hr
Pseudomonas aeruginosa [12] = assay: Antimicrobial activity against Pseudomonas aeruginosa MTCC 741 assessed as growth inhibition after 24 hr by agar streak dilution method; conditions: MTCC 741, 24 h
Escherichia coli [13] = assay: Antimicrobial activity against Escherichia coli MTCC 739 assessed as growth inhibition after 24 hr by agar streak dilution method; conditions: MTCC 739, 24 h
Staphylococcus aureus [14] = assay: Antimicrobial activity against Staphylococcus aureus MTCC 96 assessed as diameter of growth inhibition zone after 24 hr
Staphylococcus aureus [15] = assay: Antimicrobial activity against Staphylococcus aureus MTCC 96 assessed as growth inhibition after 24 hr by agar streak dilution method; conditions: MTCC 96, 24 h
Klebsiella pneumoniae [16] = assay: Antimicrobial activity against Klebsiella pneumoniae MTCC 109 assessed as growth inhibition after 24 hr by agar streak dilution method; conditions: MTCC 109, 24 h
Proteus vulgaris [17] = assay: Antimicrobial activity against Proteus vulgaris MTCC 1771 assessed as diameter of growth inhibition zone after 24 hr
Salmonella typhi [18] = assay: Antimicrobial activity against Salmonella enterica subsp. enterica serovar Typhi MTCC 733 assessed as growth inhibition after 24 hr by agar streak dilution method; conditions: MTCC 733, 24 h
Proteus vulgaris [19] = assay: Antimicrobial activity against Proteus vulgaris MTCC 1771 assessed as growth inhibition after 24 hr by agar streak dilution method; conditions: MTCC 1771, 24 h
Salmonella typhi [20] = assay: Antimicrobial activity against Salmonella enterica subsp. enterica serovar Typhi MTCC 733 assessed as diameter of growth inhibition zone after 24 hr
Shigella flexneri [21] = assay: Antimicrobial activity against Shigella flexneri MTCC1457 assessed as diameter of growth inhibition zone after 24 hr
Pseudomonas aeruginosa [22] = assay: Antimicrobial activity against Pseudomonas aeruginosa MTCC 741 assessed as diameter of growth inhibition zone after 24 hr
Escherichia coli [23] = assay: Antimicrobial activity against Escherichia coli MTCC 739 assessed as diameter of growth inhibition zone after 24 hr
[24] = system: Mycobacterium tuberculosis; assay: Antituberculosis activity against Mycobacterium tuberculosis H37Rv assessed as growth inhibition after 12 to 28 days by L-J MIC method; conditions: for MIC: Mycobacterium tuberculosis, H37Rv
Bacillus cereus [25] = assay: Antimicrobial activity against Bacillus cereus MTCC 430 assessed as growth inhibition after 24 hr by agar streak dilution method; conditions: MTCC 430, 24 h

Compound	diameter of the inhibition zone (DIZ) (Aspergillus clavatus [1]) [mm]	diameter of the inhibition zone (DIZ) (Candida albicans [2]) [mm]	MIC (Candida albicans [3]) [µg/mL]	MIC (Aspergillus niger [4]) [µg/mL]	diameter of the inhibition zone (DIZ) (Aspergillus fumigatus [5]) [mm]	diameter of the inhibition zone (DIZ) (Aspergillus niger [6]) [mm]	MIC (Aspergillus fumigatus [7]) [µg/mL]	MIC (Aspergillus clavatus [8]) [µg/mL]	diameter of the inhibition zone (DIZ) (Klebsiella pneumoniae [9]) [mm]	MIC (Shigella flexneri [10]) [µg/mL]	diameter of the inhibition zone (DIZ) (Bacillus cereus [11]) [mm]	MIC (Pseudomonas aeruginosa [12]) [µg/mL]	diameter of the inhibition zone (DIZ) (Staphylococcus aureus [14]) [mm]	MIC (Staphylococcus aureus [15]) [µg/mL]	MIC (Klebsiella pneumoniae [16]) [µg/mL]	diameter of the inhibition zone (DIZ) (Proteus vulgaris [17]) [mm]	MIC (Salmonella typhi [18]) [µg/mL]	MIC (Proteus vulgaris [19]) [µg/mL]	growth inhibition (GI) [24] [%]	MIC [24] [µg/mL]	other results
CC(=O)N1CCN(c2ccc(OCC3COC(Cn4ccnc4)(c4ccc(Cl)cc4Cl)O3)cc2)CC1 (configuration not stated) [KETOCONAZOLE]	31	33	1 (≈ 1.88 µM)	≤ 3	29	30	1 (≈ 1.88 µM)	1 (≈ 1.88 µM)	–	–	–	–	–	–	–	–	–	–	–	–	–
COc1ccc(C2CC(c3ccc(Nc4cc(=O)oc5ccccc45)cc3)=NN2C(C)=O)cc1 (configuration not stated)	20	19	50 (≈ 110 µM)	25 (≈ 55.1 µM)	18	21	50 (≈ 110 µM)	25 (≈ 55.1 µM)	17	100 (≈ 221 µM)	15	50 (≈ 110 µM)	16	100 (≈ 221 µM)	100 (≈ 221 µM)	20	100 (≈ 221 µM)	50 (≈ 110 µM)	99	100 (≈ 221 µM)	MIC (Escherichia coli [13]): 50 µg/mL (≈ 110 µM); diameter of the inhibition zone (DIZ) (Salmonella typhi [20]): 17 mm; diameter of the inhibition zone (DIZ) (Shigella flexneri [21]): 16 mm; diameter of the inhibition zone (DIZ) (Pseudomonas aeruginosa [22]): 18 mm; diameter of the inhibition zone (DIZ) (Escherichia coli [23]): 19 mm; MIC (Bacillus cereus [25]): 100 µg/mL (≈ 221 µM)
CC(=O)N1N=C(c2ccc(Nc3cc(=O)oc4ccccc34)cc2)CC1c1ccc(O)cc1O (configuration not stated)	22	17	50 (≈ 110 µM)	25 (≈ 54.9 µM)	24	21	12.5 (≈ 27.4 µM)	25 (≈ 54.9 µM)	23	25 (≈ 54.9 µM)	20	25 (≈ 54.9 µM)	19	50 (≈ 110 µM)	6.25 (≈ 13.7 µM)	22	25 (≈ 54.9 µM)	12.5 (≈ 27.4 µM)	97	250 (≈ 549 µM)	MIC (Escherichia coli [13]): 25 µg/mL (≈ 54.9 µM); diameter of the inhibition zone (DIZ) (Salmonella typhi [20]): 21 mm; diameter of the inhibition zone (DIZ) (Shigella flexneri [21]): 20 mm; diameter of the inhibition zone (DIZ) (Pseudomonas aeruginosa [22]): 22 mm; diameter of the inhibition zone (DIZ) (Escherichia coli [23]): 20 mm; MIC (Bacillus cereus [25]): 50 µg/mL (≈ 110 µM)
N#Cc1c(-c2ccccc2Br)cc(-c2ccc(Nc3cc(=O)oc4ccccc34)cc2)nc1N	19	24	25 (≈ 49.1 µM)	25 (≈ 49.1 µM)	22	22	12.5 (≈ 24.5 µM)	25 (≈ 49.1 µM)	23	12.5 (≈ 24.5 µM)	20	50 (≈ 98.2 µM)	23	25 (≈ 49.1 µM)	12.5 (≈ 24.5 µM)	20	25 (≈ 49.1 µM)	25 (≈ 49.1 µM)	98	100 (≈ 196 µM)	MIC (Escherichia coli [13]): 50 µg/mL (≈ 98.2 µM); diameter of the inhibition zone (DIZ) (Salmonella typhi [20]): 22 mm; diameter of the inhibition zone (DIZ) (Shigella flexneri [21]): 22 mm; diameter of the inhibition zone (DIZ) (Pseudomonas aeruginosa [22]): 19 mm; diameter of the inhibition zone (DIZ) (Escherichia coli [23]): 18 mm; MIC (Bacillus cereus [25]): 25 µg/mL (≈ 49.1 µM)
N#Cc1c(-c2ccc([N+](=O)[O-])cc2)cc(-c2ccc(Nc3cc(=O)oc4ccccc34)cc2)nc1N	22	23	12.5 (≈ 26.3 µM)	25 (≈ 52.6 µM)	20	23	25 (≈ 52.6 µM)	25 (≈ 52.6 µM)	19	50 (≈ 105 µM)	22	50 (≈ 105 µM)	17	50 (≈ 105 µM)	25 (≈ 52.6 µM)	19	12.5 (≈ 26.3 µM)	50 (≈ 105 µM)	96	250 (≈ 526 µM)	MIC (Escherichia coli [13]): 25 µg/mL (≈ 52.6 µM); diameter of the inhibition zone (DIZ) (Salmonella typhi [20]): 23 mm; diameter of the inhibition zone (DIZ) (Shigella flexneri [21]): 20 mm; diameter of the inhibition zone (DIZ) (Pseudomonas aeruginosa [22]): 20 mm; diameter of the inhibition zone (DIZ) (Escherichia coli [23]): 22 mm; MIC (Bacillus cereus [25]): 25 µg/mL (≈ 52.6 µM)
O=C(/C=C/c1ccccc1Br)c1ccc(Nc2cc(=O)oc3ccccc23)cc1	12	18	50 (≈ 112 µM)	100 (≈ 224 µM)	15	12	100 (≈ 224 µM)	100 (≈ 224 µM)	14	100 (≈ 224 µM)	11	100 (≈ 224 µM)	13	100 (≈ 224 µM)	100 (≈ 224 µM)	<10	100 (≈ 224 µM)	100 (≈ 224 µM)	97	500 (≈ 1120 µM)	MIC (Escherichia coli [13]): 100 µg/mL (≈ 224 µM); diameter of the inhibition zone (DIZ) (Salmonella typhi [20]): 11 mm; diameter of the inhibition zone (DIZ) (Shigella flexneri [21]): 12 mm; diameter of the inhibition zone (DIZ) (Pseudomonas aeruginosa [22]): <10 mm; diameter of the inhibition zone (DIZ) (Escherichia coli [23]): 11 mm; MIC (Bacillus cereus [25]): 100 µg/mL (≈ 224 µM)
N#Cc1c(-c2ccccc2O)cc(-c2ccc(Nc3cc(=O)oc4ccccc34)cc2)nc1N	27	24	25 (≈ 56 µM)	12.5 (≈ 28 µM)	25	25	6.25 (≈ 14 µM)	6.25 (≈ 14 µM)	28	12.5 (≈ 28 µM)	22	12.5 (≈ 28 µM)	21	12.5 (≈ 28 µM)	3.12 (≈ 6.99 µM)	22	6.25 (≈ 14 µM)	12.5 (≈ 28 µM)	97	25 (≈ 56 µM)	MIC (Escherichia coli [13]): 12.5 µg/mL (≈ 28 µM); diameter of the inhibition zone (DIZ) (Salmonella typhi [20]): 25 mm; diameter of the inhibition zone (DIZ) (Shigella flexneri [21]): 21 mm; diameter of the inhibition zone (DIZ) (Pseudomonas aeruginosa [22]): 24 mm; diameter of the inhibition zone (DIZ) (Escherichia coli [23]): 24 mm; MIC (Bacillus cereus [25]): 12.5 µg/mL (≈ 28 µM)
NNC(=O)c1ccncc1 [ISONIAZID]	–	–	–	–	–	–	–	–	–	–	–	–	–	–	–	–	–	–	99	0.2 (≈ 1.46 µM)	–
NC(=O)c1cnccn1 [PYRAZINAMIDE]	–	–	–	–	–	–	–	–	–	–	–	–	–	–	–	–	–	–	99	6.25 (≈ 50.8 µM)	–
CO[C@H]1/C=C/O[C@@]2(C)Oc3c(C)c(O)c4c(O)c(c(/C=N/N5CCN(C)CC5)c(O)c4c3C2=O)NC(=O)/C(C)=C\C=C\[C@H](C)[C@H](O)[C@@H](C)[C@@H](O)[C@@H](C)[C@H](OC(C)=O)[C@@H]1C [RIFAMPIN]	–	–	–	–	–	–	–	–	–	–	–	–	–	–	–	–	–	–	99	0.25 (≈ 0.304 µM)	–
CC[C@@H](CO)NCCN[C@@H](CC)CO [ETHAMBUTOL]	–	–	–	–	–	–	–	–	–	–	–	–	–	–	–	–	–	–	99	3.12 (≈ 15.3 µM)	–
O=C(O)c1cn(C2CC2)c2cc(N3CCNCC3)c(F)cc2c1=O [CIPROFLOXACIN]	–	–	–	–	–	–	–	–	33	≤ 3	31	1 (≈ 3.02 µM)	30	1 (≈ 3.02 µM)	1 (≈ 3.02 µM)	31	1 (≈ 3.02 µM)	1 (≈ 3.02 µM)	–	–	diameter of the inhibition zone (DIZ) (Salmonella typhi [20]): 30 mm; diameter of the inhibition zone (DIZ) (Shigella flexneri [21]): 32 mm; diameter of the inhibition zone (DIZ) (Pseudomonas aeruginosa [22]): 33 mm; diameter of the inhibition zone (DIZ) (Escherichia coli [23]): 32 mm; MIC (Bacillus cereus [25]): 1 µg/mL (≈ 3.02 µM)
